Test results from US20020156284A1, “Crystalline form of omeprazole” (priority 1998, published 2002).
Entries after “also recorded” stand apart in the source; their conditions may differ.

Assays:
Format in all cases: physicochemical
[1] = thermodynamic stability of crystal forms
hygroscopicity = experiment: hygroscopicity
[2] = chemical stability (thermo stability and light stability); conditions: compared with omeprazole form B
[3] = compared with omeprazole form B, especially at room temperature

hygroscopicity (absolute statement) (hygroscopicity) | hygroscopicity (hygroscopicity; [3]) | chemical stability, such as thermo stability and light stability [2] | Compound | thermodynamic stability [1, 3] | conversion into the other crystal form ([1]; under certain conditions)
essentially non-hygroscopic | less hygroscopic than omeprazole form B | better chemical stability | COc1ccc2[nH]c([S+]([O-])Cc3ncc(C)c(OC)c3C)nc2c1 (centres unmarked) [Omeprazole form A, 5-methoxy-2-[[(4-methoxy-3,5-dimethyl-2-pyridinyl)methyl]sulfinyl]-1H-benzimidazole] | thermodynamically more stable; also recorded: thermo-dynamically more stable than omeprazole form B | –
– | – | – | COc1ccc2[nH]c([S+]([O-])Cc3ncc(C)c(OC)c3C)nc2c1 (centres unmarked) [Omeprazole form B, 5-methoxy-2-[[(4-methoxy-3,5-dimethyl-2-pyridinyl)methyl]sulfinyl]-1H-benzimidazole, reference compound] | – | completely or partly, be converted into omeprazole form A
